# From patent publication US20160209435A1, “Acetaminophen as a Marker of Hepatic Disorders” (THE ARIZONA BOARD OF REGENTS, on behalf of THE UNIVERSITY …, priority 2008, published 2016)
# Where two headings read alike, the source gives them in different places.
# Columns and labels:
# [1] = MCD rats, APAP 1 mmol/kg; cited from earlier work
# [2] = APAP-GLUC concentration in urine after APAP administration (HPLC); assay type: in vivo, human; conditions: normal volunteers, steatosis, steatohepatitis
# Procedure: (§1) A study was conducted in pediatric patients whose disease status had been biopsy verified. Twenty-four pediatric patients (12-18 yrs) were desirable for the preliminary study due to the presumed lack of confounding factors (e.g., alcoholic consumption, illicit drug use) and the increasing prevalence of childhood obesity. Conversely, pediatric patients are limited in the amount of real liver damage that can take place simply due to age, where pediatric patients are incapable of developing ballooning degeneration and are limited to fat deposition, inflammation, and fibrosis.
# High Performance Liquid Chromatography Analysis. APAP and its metabolites in plasma, and urine samples were quantified by high performance liquid chromatography analysis based on previously described methods (Howie et al., 1977a; Chen et al., 2000; Slitt et al., 2003d). […] The elution of metabolites was monitored at a wavelength of 254 nm. Retention times of APAP and its metabolites were determined by comparison with that of authentic standards. […] Samples were analyzed using a Beckman System Gold HPLC system (Beckman Coulter, Inc., Fullerton, Calif.) equipped with a 128-nm solvent module and a 166-nm detector. Quantitation was based on integrated peak areas. […]
# [3] = APAP-GLUC concentration in plasma of pediatric patients after APAP administration (HPLC); assay type: in vivo, human; conditions: for concentration at 1 h / concentration at 2 h / concentration at 4 h / concentration at 3 h: human, plasma; for concentration at 1 h: 1 h after APAP; for concentration at 2 h: 2 h after APAP; for concentration at 4 h: 4 h after APAP; for concentration at 3 h: 3 h after APAP
# Procedure: as §1
# High Performance Liquid Chromatography Analysis. APAP and its metabolites in plasma, and urine samples were quantified by high performance liquid chromatography analysis based on previously described methods (Howie et al., 1977a; Chen et al., 2000; Slitt et al., 2003d). APAP and its metabolites were resolved using a Zorbmax™ SB-C18 reverse-phase 4.6-mm×25-cm column with a Phenomenex™ Security Guard Column Guard and eluted using a mobile phase composed of 12.5% HPLC-grade methanol, 1% acetic acid, and 86.5% water, run isocratically at a flow rate of 1.2 mL/minute. The elution of metabolites was monitored at a wavelength of 254 nm. Retention times of APAP and its metabolites were determined by comparison with that of authentic standards. […] Samples were analyzed using a Beckman System Gold HPLC system (Beckman Coulter, Inc., Fullerton, Calif.) equipped with a 128-nm solvent module and a 166-nm detector. Quantitation was based on integrated peak areas. The concentrations of APAP and its metabolites were calculated using an APAP standard curve since the molar extinction coefficients of APAP and its conjugated metabolites are approximately the same (Howie et al., 1977b). To precipitate proteins in plasma, and urine, samples were diluted 1:2, 1:2, and 1:3, respectively, with ice-cold methanol and centrifuged at 4,000×g for 30 minutes at 4° C. The resulting supernatants were collected and diluted in mobile phase 1:3 (urine) or 1:2 (plasma) prior to HPLC analysis.
# Liver fibrosis was histologically characterized as mild (minimal scarring around blood vessels), moderate (scarring extending out from the liver blood vessels), or severe (scarring forming bridges between blood vessels).
# Liver inflammation was histologically characterized as mild (less than 2 foci of inflammation), moderate (2-4 foci of inflammation), or severe (more than 4 foci of inflammation).
# [4] = cited from earlier work
# [5] = NASH, read-out: Mean plasma concentration
# [6] = NASH, read-out: Median plasma concentration
# [7] = Normal, read-out: Mean plasma concentration
# [8] = Normal, read-out: Median plasma concentration
# [9] = Steatosis, read-out: Mean plasma concentration
# [10] = Steatosis, read-out: Median plasma concentration
smiles,measurement,setting,value
"CC(=O)Nc1ccc(O[C@@H]2O[C@H](C(=O)O)[C@@H](O)[C@H](O)[C@H]2O)cc1 [APAP-GLUC, acetaminophen (APAP)-glucuronide]",route of excretion relative to control,[1],shift from biliary to plasma excretion
same,"Urine levels, NASH versus other groups",[2],not significantly different between patients with NASH and other groups until four hours
same,"Plasma concentration, steatohepatitis versus simple steatosis",[3]; all time points measured,significantly higher
same,concentration at 1 h,[3]; [5],60.7 µM
same,concentration at 1 h,[3]; [6],75.9 µM
same,concentration at 2 h,[3]; [5],72.7 µM
same,concentration at 2 h,[3]; [6],66.4 µM
same,concentration at 4 h,[3]; [5],68.3 µM
same,concentration at 4 h,[3]; [6],62.6 µM
same,concentration at 1 h,[3]; [7],29.9 µM
same,concentration at 1 h,[3]; [8],29 µM
same,concentration at 2 h,[3]; [7],54.3 µM
same,concentration at 2 h,[3]; [8],48.9 µM
same,concentration at 3 h,[3]; [7],46.7 µM
same,concentration at 3 h,[3]; [8],39.2 µM
same,concentration at 1 h,[3]; [9],30.5 µM
same,concentration at 1 h,[3]; [10],32.6 µM
same,concentration at 2 h,[3]; [9],44.3 µM
same,concentration at 2 h,[3]; [10],41.1 µM
same,concentration at 4 h,[3]; [9],35.5 µM
same,concentration at 4 h,[3]; [10],35.3 µM
same,"Plasma levels, hepatic fibrosis versus no hepatic fibrosis",[3]; pediatric patients,Higher
same,"Plasma levels, hepatic inflammation versus no hepatic inflammation",[3]; pediatric patients,Higher
CC(=O)Nc1ccc(O)cc1 [Acetaminophen],plasma half-life,[4]; first-order elimination,2.0 to 2.4 h
same,fraction of administered dose conjugated with glucuronic acid,[4]; in vivo,At least one-half
same,fraction of administered dose conjugated with sulfate,[4]; in vivo,one-third
same,fraction metabolized by CYP-450-dependent mixed-function oxidase pathway,[4]; primarily via CYP2E1,5-9%
same,dose excreted unchanged by the kidneys,[4]; recommended dose,Less than 5%
